Experiments:
Format in all cases: in vivo
Helicoverpa armigera = Helicoverpa armigera diet incorporation method; details: third instar larvae, dead and moribund combined, 96 h after release
In short: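 Third-instar larvae, starved, were placed singly on diet pieces containing test dispersion (bead-milled in surfactant, particles under 2 μm, 500 ppm stock then diluted). Trays kept at 25° C. and 70% RH; mortality counted at 96 h, moribund larvae counted with dead.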

Spodoptera litura = Spodoptera litura diet incorporation method; details: third instar larvae, dead and moribund combined, 96 h after release
In short: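 Compound milled to <2 μm average particle size in surfactant, dispersed in water (500 ppm stock dispersion), then mixed into semi-synthetic diet at ~50° C. One starved third-instar larva per diet cell, 25° C, 70% RH; percent mortality (dead plus moribund) scored at 96 h.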

Plutella xylostella = test: whole plant or invertebrate; details: foliar, cabbage leaf dip, second instar larvae, dead and moribund combined, 72 h after release
In short: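 Leaf-dip bioassay: second-instar larvae, singly, fed on cabbage leaves dipped 10 s in test dispersion (bead-milled, diluted with 0.01% Triton-X to test concentration) and dried 20 min. Held at 25 °C, 70% RH; % mortality counts dead and moribund at 72 h.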

Measured: mortality at 300 ppm

Cc1cc2ccnn2c(C(=O)NC2COC2)c1NC(=O)c1cc(Br)nn1-c1ncccc1Cl [Compound 35, 6-(3-bromo-1-(3-chloropyridin-2-yl)-1H-pyrazole-5-carboxamido)-5-methyl-N-(oxetan-3-yl)pyrazolo[1,5-a]pyridine-7-carboxamide]
> 70%: all assays above

C#CCNC(=O)c1c(NC(=O)c2cc(Br)nn2-c2ncccc2Cl)c(C)cc2ccnn12 [Compound 36, 6-(3-bromo-1-(3-chloropyridin-2-yl)-1H-pyrazole-5-carboxamido)-5-methyl-N-(prop-2-yn-1-yl)pyrazolo[1,5-a]pyridine-7-carboxamide]
> 70%: all assays above

CSCCNC(=O)c1c(NC(=O)c2cc(Br)nn2-c2ncccc2Cl)c(C)cc2ccnn12 [Compound 37, 6-(3-bromo-1-(3-chloropyridin-2-yl)-1H-pyrazole-5-carboxamido)-5-methyl-N-(2-(methylthio)ethyl)pyrazolo[1,5-a]pyridine-7-carboxamide]
> 70%: all assays above

COc1cc(C(=O)Nc2c(C)cc3ccnn3c2C(=O)NCC#N)n(-c2ncccc2Cl)n1 [Compound 40, 6-(1-(3-chloropyridin-2-yl)-3-methoxy-1H-pyrazole-5-carboxamido)-N-(cyanomethyl)-5-methylpyrazolo[1,5-a]pyridine-7-carboxamide]
> 70%: all assays above

COc1cc(C(=O)Nc2c(C)cc3ccnn3c2C(=O)NCCC#N)n(-c2ncccc2Cl)n1 [Compound 41, 6-(1-(3-chloropyridin-2-yl)-3-methoxy-1H-pyrazole-5-carboxamido)-N-(2-cyanoethyl)-5-methylpyrazolo[1,5-a]pyridine-7-carboxamide]
> 70%: all assays above

CONC(=O)c1c(NC(=O)c2cc(OC)nn2-c2ncccc2Cl)c(C)cc2ccnn12 [Compound 42, 6-(1-(3-chloropyridin-2-yl)-3-methoxy-1H-pyrazole-5-carboxamido)-N-methoxy-5-methylpyrazolo[1,5-a]pyridine-7-carboxamide]
> 70%: all assays above

C=CCNC(=O)c1c(NC(=O)c2cc(OC)nn2-c2ncccc2Cl)c(C)cc2ccnn12 [Compound 44, N-allyl-6-(1-(3-chloropyridin-2-yl)-3-methoxy-1H-pyrazole-5-carboxamido)-5-methylpyrazolo[1,5-a]pyridine-7-carboxamide]
> 70%: all assays above

C#CCNC(=O)c1c(NC(=O)c2cc(OC)nn2-c2ncccc2Cl)c(C)cc2ccnn12 [Compound 45, 6-(1-(3-chloropyridin-2-yl)-3-methoxy-1H-pyrazole-5-carboxamido)-5-methyl-N-(prop-2-yn-1-yl)pyrazolo[1,5-a]pyridine-7-carboxamide]
> 70%: all assays above

COc1cc(C(=O)Nc2c(C)cc3ccnn3c2C(=O)NC2COC2)n(-c2ncccc2Cl)n1 [Compound 46, 6-(1-(3-chloropyridin-2-yl)-3-methoxy-1H-pyrazole-5-carboxamido)-5-methyl-N-(oxetan-3-yl)pyrazolo[1,5-a]pyridine-7-carboxamide]
> 70%: all assays above

CCCNC(=O)c1c(NC(=O)c2cc(Br)nn2-c2ncccc2Cl)c(Br)cc2ccnn12 [Compound 50, 5-bromo-6-(3-bromo-1-(3-chloropyridin-2-yl)-1H-pyrazole-5-carboxamido)-N-propylpyrazolo[1,5-a]pyridine-7-carboxamide]
> 70%: all assays above

CNC(=O)c1c(NC(=O)c2cc(Br)nn2-c2ncccc2Cl)c(Br)cc2ccnn12 [Compound 51, 5-bromo-6-(3-bromo-1-(3-chloropyridin-2-yl)-1H-pyrazole-5-carboxamido)-N-methylpyrazolo[1,5-a]pyridine-7-carboxamide]
> 70%: all assays above

O=C(Nc1c(Br)cc2ccnn2c1C(=O)NC1CC1)c1cc(Br)nn1-c1ncccc1Cl [Compound 52, 5-bromo-6-(3-bromo-1-(3-chloropyridin-2-yl)-1H-pyrazole-5-carboxamido)-N-cyclopropylpyrazolo[1,5-a]pyridine-7-carboxamide]
> 70%: all assays above

CC(C)(C)NC(=O)c1c(NC(=O)c2cc(Br)nn2-c2ncccc2Cl)c(Br)cc2ccnn12 [Compound 53, 5-bromo-6-(3-bromo-1-(3-chloropyridin-2-yl)-1H-pyrazole-5-carboxamido)-N-(tert-butyl)pyrazolo[1,5-a]pyridine-7-carboxamide]
> 70%: all assays above

O=C(Nc1c(Br)cc2ccnn2c1C(=O)NCC1CC1)c1cc(Br)nn1-c1ncccc1Cl [Compound 54, 5-bromo-6-(3-bromo-1-(3-chloropyridin-2-yl)-1H-pyrazole-5-carboxamido)-N-(cyclopropylmethyl)pyrazolo[1,5-a]pyridine-7-carboxamide]
> 70%: all assays above

CSCCNC(=O)c1c(NC(=O)c2cc(Br)nn2-c2ncccc2Cl)c(Br)cc2ccnn12 [Compound 55, 5-bromo-6-(3-bromo-1-(3-chloropyridin-2-yl)-1H-pyrazole-5-carboxamido)-N-(2-(methylthio)ethyl)pyrazolo[1,5-a]pyridine-7-carboxamide]
> 70%: all assays above

C=CCNC(=O)c1c(NC(=O)c2cc(Br)nn2-c2ncccc2Cl)c(Br)cc2ccnn12 [Compound 56, N-allyl-5-bromo-6-(3-bromo-1-(3-chloropyridin-2-yl)-1H-pyrazole-5-carboxamido)pyrazolo[1,5-a]pyridine-7-carboxamide]
> 70%: all assays above

C#CCNC(=O)c1c(NC(=O)c2cc(Br)nn2-c2ncccc2Cl)c(Br)cc2ccnn12 [Compound 57, 5-bromo-6-(3-bromo-1-(3-chloropyridin-2-yl)-1H-pyrazole-5-carboxamido)-N-(prop-2-yn-1-yl)pyrazolo[1,5-a]pyridine-7-carboxamide]
> 70%: all assays above

Cc1cc2ccnn2c(C(=O)NC(C)(C)C)c1NC(=O)c1cc(C(F)(F)F)nn1-c1ncccc1Cl [Compound 58, N-(tert-butyl)-6-(1-(3-chloropyridin-2-yl)-3-(trifluoromethyl)-1H-pyrazole-5-carboxamido)-5-methylpyrazolo[1,5-a]pyridine-7-carboxamide]
> 70%: all assays above

CCNC(=O)c1c(NC(=O)c2cc(C(F)(F)F)nn2-c2ncccc2Cl)c(C)cc2ccnn12 [Compound 59, 6-(1-(3-chloropyridin-2-yl)-3-(trifluoromethyl)-1H-pyrazole-5-carboxamido)-N-ethyl-5-methylpyrazolo[1,5-a]pyridine-7-carboxamide]
> 70%: all assays above

Cc1cc2ccnn2c(C(=O)NC(C)C)c1NC(=O)c1cc(C(F)(F)F)nn1-c1ncccc1Cl [Compound 60, 6-(1-(3-chloropyridin-2-yl)-3-(trifluoromethyl)-1H-pyrazole-5-carboxamido)-N-isopropyl-5-methylpyrazolo[1,5-a]pyridine-7-carboxamide]
> 70%: all assays above

Cc1cc2ccnn2c(C(=O)NC2CC2)c1NC(=O)c1cc(C(F)(F)F)nn1-c1ncccc1Cl [Compound 61, 6-(1-(3-chloropyridin-2-yl)-3-(trifluoromethyl)-1H-pyrazole-5-carboxamido)-N-cyclopropyl-5-methylpyrazolo[1,5-a]pyridine-7-carboxamide]
> 70%: all assays above

Cc1cc2ccnn2c(C(=O)NCC2CC2)c1NC(=O)c1cc(C(F)(F)F)nn1-c1ncccc1Cl [Compound 62, 6-(1-(3-chloropyridin-2-yl)-3-(trifluoromethyl)-1H-pyrazole-5-carboxamido)-N-(cyclopropylmethyl)-5-methylpyrazolo[1,5-a]pyridine-7-carboxamide]
> 70%: all assays above

CNC(=O)c1c(NC(=O)c2cc(C(F)(F)F)nn2-c2ncccc2Cl)c(C)cc2ccnn12 [Compound 63, 6-(1-(3-chloropyridin-2-yl)-3-(trifluoromethyl)-1H-pyrazole-5-carboxamido)-N,5-dimethylpyrazolo[1,5-a]pyridine-7-carboxamide]
> 70%: all assays above

Cc1cc2ccnn2c(C(=O)NCC2CC2)c1NC(=O)c1cc(N2CC(F)(F)C2)nn1-c1ncccc1Cl [Compound 67, 6-(1-(3-chloropyridin-2-yl)-3-(3,3-difluoroazetidin-1-yl)-1H-pyrazole-5-carboxamido)-N-(cyclopropylmethyl)-5-methylpyrazolo[1,5-a]pyridine-7-carboxamide]
> 70%: all assays above
